Source: US20060093596A1, “Genomic approach to identification of novel broad-spectrum antimicrobial peptides from bony fish” (priority 2002, published 2006)
“Also recorded” adds a separate entry of the source. Where no end group is shown, it is not given here.

What was measured:
[1] = test system: bacterial pathogens and C. albicans; assay: Spectrum of antimicrobial activity (MIC panel, overall); type: cell-based; details: summary of MIC results against bacteria and C. albicans
Experimental: Three repeats of each MIC determination were performed.
The minimal inhibitory concentrations of the chemically produced peptides against a wide range of baterial pathogens and C. albicans were determined and are shown in Table 9.

[2] = test system: Salmonella enterica s. Typhimurium 14028S (C587); type: cell-based; details: lowest peptide concentration inhibiting growth by at least 50%; Mueller-Hinton broth
Experimental: (§2) Most non-fish bacterial strains as well as Candida albicans were grown at 37° C. in Mueller-Hinton Broth (MHB; Difco Laboratories, Detroit), while the fish bacteria were maintained at 16° C. in Tryptic Soy Broth (TSB; Difco, 5g/l NaCl). All strains were stored at −70° C. until they were thawed for use and sub-cultured daily. The following strains, Pseudomonas aeruginosa K799 (parent of Z61), Pseudomonas aeruginosa Z61 (antibiotic supersusceptible), Salmonella typhimurium 14028s (parent of MS7953s), Salmonella typhimurium MS7953s (defensin supersusceptible), as well as Staphylococcus epidermidis (human clinical isolates) and methicillin-resistant Staphylococcus aureus (MRSA; isolated by Dr. A. Chow, University of British Columbia) have been kindly donated by Prof R. E. W. Hancock, University of British Columbia.
(§3) The activities of the antimicrobial peptides were determined as minimal inhibitory concentrations (MICs) using the microtitre broth dilution method of Amsterdam (Amsterdam, 1996), as modified by Wu and Hancock (1999). Serial dilutions of the peptide were made in water in 96-well polypropylene (Costar, Coming Incorporated, Coming, New York) microtiter plates. Bacteria or C. albicans were grown overnight to mid-logarithmic phase as described above, and diluted to give a final inoculum size of 10^6 cfu/ml. A suspension of bacteria or yeast was added to each well of a 96 well plate and incubated overnight at the appropriate temperature. […] Three repeats of each MIC determination were performed.

[3] = test system: methicillin-resistant Staphylococcus aureus (MRSA) C623, SAP017; details: for Minimal inhibitory concentration, MRSA C623: methicillin-resistant C623, SAP017
Experimental: as §2, §3

[4] = test system: Staphylococcus epidermidis C621 (clinical isolate)
Experimental: as §2, §3

[5] = test system: Escherichia coli C786, CGSC4908; type: cell-based; details: lowest peptide concentration inhibiting growth by at least 50%; supplemented Mueller-Hinton broth
Experimental: All strains were stored at −70° C. until they were thawed for use and sub-cultured daily.
Escherichia coli strain CGSC 4908 (his-67, thyA43, pyr-37), auxotrophic for thymidine, uridine, and L-histidine (Cohen et al., 1963) was kindly supplied, free of charge, by the E.coli Genetic Stock Centre (Yale University, New Haven, Conn.). MHB supplemented with 5 mg/L thymidine, 10 mg/L uridine and 20 mg/L L-histidine (Sigma Chemical Co., St. Louis, Mo.), was used to grow E.coli CGSC 4908 unless otherwise specified.
The activities of the antimicrobial peptides were determined as minimal inhibitory concentrations (MICs) using the microtitre broth dilution method of Amsterdam (Amsterdam, 1996), as modified by Wu and Hancock (1999). Serial dilutions of the peptide were made in water in 96-well polypropylene (Costar, Coming Incorporated, Coming, New York) microtiter plates. Bacteria or C. albicans were grown overnight to mid-logarithmic phase as described above, and diluted to give a final inoculum size of 10^6 cfu/ml. A suspension of bacteria or yeast was added to each well of a 96 well plate and incubated overnight at the appropriate temperature. In the case of E. coli CGSC 4908, supplemented MHB was used. […] Three repeats of each MIC determination were performed.

[6] = test system: Aeromonas salmonicida 99-1, A449
Experimental: (§4) Most non-fish bacterial strains as well as Candida albicans were grown at 37° C. in Mueller-Hinton Broth (MHB; Difco Laboratories, Detroit), while the fish bacteria were maintained at 16° C. in Tryptic Soy Broth (TSB; Difco, 5g/l NaCl).
(§5) Two field isolates of the salmonid pathogen Aeromonas salmonicida are from the IMB strain collection.
as §3

[7] = test system: Aeromonas salmonicida 97-4
Experimental: as §4, §5, §3

[8] = test system: methicillin-resistant Staphylococcus aureus (MRSA); assay: Killing assay (survival at MIC and ten times MIC); type: cell-based; details: Mueller-Hinton broth, FIG. 13
Experimental: (§1) Survival of bacteria and C. albicans upon exposure to selected peptides applied at their minimal inhibitory concentrations (MICs) and ten times their MICs was measured using standard methodology. The test organisms were grown in MHB and exposed to the peptides. At the specified time intervals equal aliquots were removed from the cultures, plated on MHB plates, and the resulting colonies were counted. Percentage survival was plotted against time on a logarithmic scale. Two repeats of each experiment were performed.
FIG. 13 describes Survival of a Gram-positive bacterium (methicillin-resistant Staphylococcus aureus—MRSA) upon exposure to NRC-15 at its minimal inhibitory concentration (MIC) and ten times its MIC. S. aureus was grown in Mueller-Hinton broth and exposed to NRC-15 at its MIC and ten times its MIC. At the specified intervals equal aliquots were removed from the culture, plated on MHB plates, and the resulting colonies were counted.

[9] = test system: Salmonella enterica s. Typhimurium MS4252S (C610, supersusceptible strain); type: cell-based; details: lowest peptide concentration inhibiting growth by at least 50%; Mueller-Hinton broth
Experimental: as §2, §3

[10] = test system: Candida albicans C627, CALB105; details: for Minimal inhibitory concentration, C. alb C627: C627, CALB105
Experimental: as §2, §3

[11] = test system: Escherichia coli UB1005 (C498); type: cell-based; details: lowest peptide concentration inhibiting growth by at least 50%; Mueller-Hinton broth
Experimental: as §2, §3

[12] = test system: Escherichia coli DC2 (C500, outer membrane-permeable mutant); type: cell-based; details: lowest peptide concentration inhibiting growth by at least 50%; Mueller-Hinton broth
Experimental: as §2, §3

[13] = test system: Pseudomonas aeruginosa K799 (H187); type: cell-based; details: for Minimal inhibitory concentration, P. aeru K799: lowest peptide concentration inhibiting growth by at least 50%, Mueller-Hinton broth
Experimental: as §2, §3

[14] = test system: Pseudomonas aeruginosa Z61 (H188, supersusceptible strain); type: cell-based; details: for Minimal inhibitory concentration, P. aeru Z61: lowest peptide concentration inhibiting growth by at least 50%, Mueller-Hinton broth
Experimental: as §2, §3

Candida albicans = assay: Killing assay (survival at MIC and ten times MIC); type: cell-based; details: Mueller-Hinton broth, FIG. 15
Experimental: as §1
FIG. 15 describes Survival of a yeast (Candida albicans) upon exposure to NRC-12 at its minimal inhibitory concentration (MIC) and ten times its MIC. C. albicans was grown in Mueller-Hinton broth and exposed to NRC-12 at its MIC and ten times its MIC. At the specified intervals equal aliquots were removed from the culture, plated on MHB plates, and the resulting colonies were counted.

P. aeruginosa K799 = assay: Killing assay in culture supplemented with NaCl; type: cell-based, Pseudomonas aeruginosa; details: culture supplemented with 150 mM NaCl; 4 μg/ml (MIC) or 40 μg/ml (10×MIC); FIG. 25
Experimental: as §1
Peptides of the invention can be used at a range of pH's, salt concentrations, and temperatures. These peptides are useful against pathogens grown in biofilms or under any other conditions for pathogen growth or culture. See for example FIG. 25 in which the ability of NRC-13 to kill P. aeruginosa K799 in […] is shown. NRC-13 was added to a culture of P. aeruginosa supplemented with 150 mM NaCl to a final concentration of 4 μg/ml (□) or 40 μg/ml (Δ), representing the MIC and 10×MIC, respectively. A control with no peptide added is also shown (♦).

Pseudomonas aeruginosa = assay: Killing assay (survival at MIC and ten times MIC); type: cell-based
Experimental: as §1
FIG. 14 describes Survival of a Gram-negative bacterium (Pseudomonas aeruginosa) upon exposure to NRC-13 at its minimal inhibitory concentration (MIC) and ten times its MIC. P. aeruginosa was grown in Mueller-Hinton broth and exposed to NRC-13 at its MIC and ten times its MIC. At the specified intervals equal aliquots were removed from the culture, plated on MHB plates, and the resulting colonies were counted.

Vibrio anguillarum = details: Coho salmon; Jia et al. 2000; cited from earlier work

Substance | antimicrobial activity, overall (in words) [1] | Minimal inhibitory concentration, S. typh 14028s [2] [µg/mL] | Minimal inhibitory concentration, MRSA C623 [3] [µg/mL] | Minimal inhibitory concentration, S. epi C621 [4] [µg/mL] | Minimal inhibitory concentration, E. coli C786 [5] [µg/mL] | Minimal inhibitory concentration, A. sal 99-1 [6] [µg/mL] | Minimal inhibitory concentration, A. sal 97-4 [7] [µg/mL] | Minimal inhibitory concentration, S. typh MS4252s [9] [µg/mL] | Minimal inhibitory concentration, C. alb C627 [10] [µg/mL] | Minimal inhibitory concentration, E. coli UB1005 [11] [µg/mL] | Minimal inhibitory concentration, E. coli DC2 [12] [µg/mL] | Minimal inhibitory concentration, P. aeru K799 [13] [µg/mL] | Minimal inhibitory concentration, P. aeru Z61 [14] [µg/mL] | also measured
GFWGKLFKLGLHGIGLLHLHL-NH2 [NRC-15] | broad spectrum of antimicrobial activity | 16 | 4 | 4 | 8 | 8 | 16 | 4 | 16 | 8 | 8 | 8 | 4 | concentration inhibiting the growth of methicillin-resistant S. aureus [3]: 4 µg/mL; ability to kill methicillin-resistant S. aureus [8]: ability to kill
GWKKWFNRAKKVGKTVGGLAVDHYL-NH2 [NRC-12] | broad spectrum of antimicrobial activity | 8 | 16 | 8 | 2 | 2 | 2 | 2 | 4 | 8 | 2 | 4 | 1 | ability to kill C. albicans (Candida albicans): ability to kill
GWKSVFRKAKKVGKTVGGLALDHYL-NH2 [NRC-11] | broad spectrum of antimicrobial activity | 32 | >64 | 64 | 4 | 8 | 8 | 4 | 32 | 16 | 4 | 32 | 4 | –
GWRTLLKKAEVKTVGKLALKHYL-NH2 [NRC-13] | broad spectrum of antimicrobial activity; also recorded: highly active | 8 | 4 | 4 | 2 | 4 | 2 | 2 | 4 | 4 | 2 | – | 1 | ability to kill P. aeruginosa K799 in NaCl (P. aeruginosa K799): kill; concentration inhibiting the growth of methicillin-resistant S. aureus [3]: 4 µg/mL; concentration inhibiting the growth of A. salmonicida ([7]; strain not stated, value matches 97-4 of Table 8): 2 µg/mL; concentration inhibiting the growth of C. albicans [10]: 4 µg/mL; MIC against P. aeruginosa K799 ([13]; text statement to FIG. 25): 4 µg/mL; concentration inhibiting the growth of P. aeruginosa ([14]; strain not stated, value matches Z61 of Table 8): 1 µg/mL; ability to kill P. aeruginosa (Pseudomonas aeruginosa; at MIC and ten times MIC, Mueller-Hinton broth, FIG. 14): ability to kill; concentration killing P. aeruginosa (Pseudomonas aeruginosa; strain not stated): 1 µg/mL
RSTEDIIKSISGGGFLNAMNA-NH2 [NRC-8] | poor or no observed activities | >64 | >64 | >64 | >64 | >64 | >64 | >64 | >64 | >64 | >64 | >64 | >64 | –
WLRRIGKGVKIIGGAALDHL-NH2 [NRC-2] | only marginally active | >64 | >64 | >64 | 64 | >128 | 128 | 64 | >64 | 64 | 64 | 64 | 32 | –
pleurocidin (GWGSFFKKAAHVGKHVGKAALTHYL-NH2; UniProt P81941 23-47, looked up) [Synthetic pleurocidin, Synthetic pleurocidin identical to the central portion of WF2 (Jia et al. 2000)] | – | – | – | – | – | – | – | – | – | – | – | – | – | protection against infection by Vibrio anguillarum (Vibrio anguillarum): protect Coho salmon against infection
